Data from patent US11261184B2, “[1,6]naphthyridine compounds and derivatives as CDK8/CDK19 inhibitors” (Boehringer Ingelheim International GmbH, priority 2017, dated 2022).

Assays:
CDK8/cyclin C = CDK8/cyclin C (Homo sapiens (Human), UniProt P49336); test: CDK8 biochemical assay (TR-FRET Kinase Tracer 236 displacement); type: binding; settings: 5 nM CDK8/cyclin C, 10 nM Kinase Tracer 236, 60 min
Method: This assay is used to identify compounds which competitively interact with the binding pocket of the CDK8 kinase.
Assay-ready plates (ARPs; Proxiplate-384 PLUS, white, PerkinElmer) with compound solution in 100% DMSO are generated on an Access Labcyte Workstation with the Labcyte Echo 55x. 150 nL of compound solution are transferred per well in 11 concentrations in duplicates with serial 1:5 dilutions. The final DMSO concentration in the assay is 1%.
5 nM (final assay concentration) CDK8/cyclin C, 2 nM (final assay concentration) Biotin anti-His Tag Antibody and 2 nM (final assay concentration) LanthaScreen Eu-Streptavidin are mixed in assay buffer (50 mM HEPES pH 7.3, 10 mM MgCl2, 1 mM EGTA, 0.01% Brij-35, 0.05% BSA, 1 mM DTT) prior to use and kept at room temperature.
The assay runs on a fully automated robotic system. 10 μL of CDK8/cyclin C, Biotin anti-His Tag Antibody and LanthaScreen Eu-Streptavidin mix are dispensed into columns 1-24. 5 μL of 10 nM (final assay concentration) Kinase Tracer 236 solution in assay buffer are added to columns 1-23, 5 μL of assay buffer into column 24. Plates are kept at room temperature in a darkened incubator. After 60 min incubation time the signal is measured in a PerkinElmer Envision HTS Multilabel Reader using the TR-FRET specs from PerkinElmer.
Each plate contains 16 wells of a negative control (diluted DMSO instead of test compound; CDK8/cyclin C, Biotin anti-His Tag Antibody and LanthaScreen Eu-Streptavidin mix w Kinase Tracer 236; column 23) and 16 wells of a positive control (diluted DMSO instead of test compound; CDK8/cyclin C, Biotin anti-His Tag Antibody and LanthaScreen Eu-Streptavidin mix w/o Kinase Tracer 236; column 24). A known inhibitor of CDK8/cyclin C binding is used as internal control. IC50 values are calculated and analyzed in the MEGALAB IC50 application using a 4 parametric logistic model.
Table 4 includes IC50 values of example compounds determined using the above assay.

[1] = Metabolic (microsomal) stability assay, human liver microsomes; type: in vitro ADME; settings: predicted clearance as percent of liver blood flow; human liver microsomes 1 mg/mL, 1 μM compound, 37° C.
Method: (§1) Metabolic (Microsomal) Stability Assay
(§2) The metabolic degradation of the test compound is assayed at 37° C. with pooled liver microsomes (mouse (MLM), rat (RLM) or human (HLM)). The final incubation volume of 74 μL per time point contains TRIS buffer (pH 7.5; 0.1 M), magnesium chloride (6.5 mM), microsomal protein (0.5 mg/mL for mouse/rat, 1 mg/mL for human specimens) and the test compound at a final concentration of 1 μM. Following a short preincubation period at 37° C., the reactions are initiated by addition of 8 μL beta-nicotinamide adenine dinucleotide phosphate, reduced form (NADPH, 10 mM) and terminated by transferring an aliquot into solvent after different time points. Additionally, the NADPH-independent degradation is monitored in incubations without NADPH, terminated at the last time point by addition of acetonitril. The quenched incubations are pelleted by centrifugation (1811 g, 5 min). An aliquot of the supernatant is assayed by LC-MS/MS for the amount of parent compound.
(§3) In vitro intrinsic clearance (CLint,in vitro) is calculated from the time course of the disappearance of the test drug during the microsomal incubation. Each plot is fitted to the first-order elimination rate constant as C(t)=C0*exp(−ke*t), where C(t) and C0 are the concentration of unchanged test drug at incubation time t and that at preincubation and ke is the disappearance rate constant of the unchanged drug. Subsequently, CLint,in vitro (μL·min^−1·amount protein) values are converted to CLint,in vitro (mL·min^−1·kg^−1) for the whole body. CLint,in vitro data are scaled up using physiological parameters. For better across species comparison the predicted clearance is expressed as percent of the liver blood flow [% QH] in the individual species. In general high stability (corresponding to low % QH) of the compounds across species is desired.

[2] = Metabolic (microsomal) stability assay, rat liver microsomes; type: in vitro ADME; settings: predicted clearance as percent of liver blood flow; rat liver microsomes 0.5 mg/mL, 1 μM compound, 37° C.
Method: as §1, §2, §3

[3] = Metabolic (microsomal) stability assay, mouse liver microsomes; type: in vitro ADME; settings: predicted clearance as percent of liver blood flow; mouse liver microsomes 0.5 mg/mL, 1 μM compound, 37° C.
Method: as §1, §2, §3

Sequence of CDK8/cyclin C (P49336 whole entry): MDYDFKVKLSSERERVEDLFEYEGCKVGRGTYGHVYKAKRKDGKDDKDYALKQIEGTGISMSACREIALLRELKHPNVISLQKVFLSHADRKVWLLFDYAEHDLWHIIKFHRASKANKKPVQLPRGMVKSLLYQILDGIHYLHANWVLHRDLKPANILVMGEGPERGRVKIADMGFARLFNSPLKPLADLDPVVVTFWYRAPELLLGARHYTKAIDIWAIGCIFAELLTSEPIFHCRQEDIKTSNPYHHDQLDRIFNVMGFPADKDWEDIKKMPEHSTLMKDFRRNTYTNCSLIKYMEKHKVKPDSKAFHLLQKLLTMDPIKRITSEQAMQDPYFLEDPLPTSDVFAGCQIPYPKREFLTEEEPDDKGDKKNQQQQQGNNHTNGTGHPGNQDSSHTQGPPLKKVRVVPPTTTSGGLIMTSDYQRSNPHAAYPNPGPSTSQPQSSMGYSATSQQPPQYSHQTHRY
Sequence of CDK8/cyclin C (P24863 whole entry partner): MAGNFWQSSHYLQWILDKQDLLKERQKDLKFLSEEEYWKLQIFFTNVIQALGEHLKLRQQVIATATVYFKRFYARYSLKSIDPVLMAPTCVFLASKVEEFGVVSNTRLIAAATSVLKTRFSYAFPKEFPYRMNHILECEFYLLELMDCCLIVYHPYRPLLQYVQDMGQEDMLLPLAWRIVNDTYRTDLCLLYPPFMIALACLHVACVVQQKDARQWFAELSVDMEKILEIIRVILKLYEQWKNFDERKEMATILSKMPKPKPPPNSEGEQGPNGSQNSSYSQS

Row | SMILES | IC50 (CDK8/cyclin C) [nM] | HLM [% QH] [1] [% QH] | RLM [% QH] [2] [% QH] | MLM [% QH] [3] [% QH]
1 | c1cc2nccc(Oc3ccc(N4CCCC4)cc3)c2cn1 [I-001] | 3.6 | – | – | –
2 | Fc1cncc2c(Oc3ccc(N4CCCC4)cc3)ccnc12 [I-002] | 3.4 | – | – | –
3 | Clc1cncc2c(Oc3ccc(N4CCCC4)cc3)ccnc12 [I-003] | 2.4 | – | – | –
4 | Cc1cncc2c(Oc3ccc(N4CCCC4)cc3)ccnc12 [I-004] | 3.7 | – | – | –
5 | Cc1nccc2nccc(Oc3ccc(N4CCCC4)cc3)c12 [I-005] | 11.2 | – | – | –
6 | CN(C)C(=O)[C@H]1CCN(c2ccc(Oc3ccnc4ccncc34)cc2)C1 [I-006] | 1.6 | – | – | –
7 | CN(C)C(=O)[C@H]1CCN(c2ccc(Oc3ccnc4c(Cl)cncc34)cc2)C1 [I-007] | 1.3 | <24 | 66 | 49
8 | CN(CCO)C(=O)[C@H]1CCN(c2ccc(Oc3ccnc4c(Cl)cncc34)cc2)C1 [I-010] | 1.3 | 50 | – | 57
9 | COCCN(C)C(=O)[C@H]1CCN(c2ccc(Oc3ccnc4c(Cl)cncc34)cc2)C1 [I-011] | 1.5 | – | – | –
10 | CN1CCN(C(=O)[C@H]2CCN(c3ccc(Oc4ccnc5c(Cl)cncc45)cc3)C2)CC1 [I-012] | 1.3 | – | – | –
11 | O=C([C@H]1CCN(c2ccc(Oc3ccnc4c(Cl)cncc34)cc2)C1)N1CCOCC1 [I-013] | 1.2 | 44 | – | 59
12 | Cc1cncc2c(Oc3ccc(N4CC[C@H](C(=O)N(C)C)C4)cc3)ccnc12 [I-014] | 1.7 | – | – | –
13 | CN(C)C(=O)[C@H]1CCN(c2ccc(Oc3ccnc4c(F)cncc34)cc2)C1 [I-015] | 1.5 | <24 | 43 | <24
14 | CN1CCN(C(=O)[C@H]2CCN(c3ccc(Oc4ccnc5c(F)cncc45)cc3)C2)CC1 [I-016] | 1.2 | – | – | –
15 | CN(CCO)C(=O)[C@H]1CCN(c2ccc(Oc3ccnc4c(F)cncc34)cc2)C1 [I-017, (S)-1-[4-(8-fluoro-[1,6]naphthyridin-4-yloxy)-phenyl]-pyrrolidine-3-carboxylic acid (2-hydroxy-ethyl)-methyl-amide] | 1.8 | <24 | 24 | <24
16 | CN(C)C(=O)[C@@H]1CCN(c2ccc(Oc3ccnc4c(Cl)cncc34)cc2)C1 [I-018] | 1.2 | 30 | 55 | 44
17 | CN(C)C(=O)[C@@H]1CCN(c2ccc(Oc3ccnc4c(F)cncc34)cc2)C1 [I-019] | 1.7 | <24 | 41 | 28
18 | CN(CCO)C(=O)[C@@H]1CCN(c2ccc(Oc3ccnc4c(F)cncc34)cc2)C1 [I-020] | 1.4 | <24 | <24 | <24
19 | CN1CCN(C(=O)[C@@H]2CCN(c3ccc(Oc4ccnc5c(F)cncc45)cc3)C2)CC1 [I-021] | < 1 | – | – | –
20 | N[C@H]1CCN(c2ccc(Oc3ccnc4c(F)cncc34)cc2)C1 [I-022] | 8.3 | <24 | <24 | <24

Row | SMILES | IC50 (CDK8/cyclin C) [nM] | HLM [% QH] [1] [% QH] | RLM [% QH] [2] [% QH] | MLM [% QH] [3] [% QH]
21 | CC(=O)N[C@H]1CCN(c2ccc(Oc3ccnc4c(F)cncc34)cc2)C1 [I-023] | 2.1 | <24 | <24 | <24
22 | CC(=O)N(C)[C@H]1CCN(c2ccc(Oc3ccnc4c(F)cncc34)cc2)C1 [I-024] | 1.4 | <24 | <24 | <24
23 | O=C1CCCN1[C@H]1CCN(c2ccc(Oc3ccnc4c(F)cncc34)cc2)C1 [I-025] | 1.6 | – | – | –
24 | CC(=O)N[C@@H]1CCN(c2ccc(Oc3ccnc4c(F)cncc34)cc2)C1 [I-026] | 2.9 | <24 | 25 | <24
25 | CC(=O)N1CCN(c2ccc(Oc3cc(N(C)C)nc4ccncc34)cc2)CC1 [I-027] | 4.5 | – | – | –
26 | CN1CCN(c2ccc(Oc3ccnc4ccncc34)cc2)CC1 [I-028] | 11.1 | – | – | –
27 | Fc1cncc2c(Oc3ccc(N4CCn5ccnc5C4)cc3)ccnc12 [I-029] | 16.6 | 29 | 57 | 36
28 | c1cc2nccc(Oc3ccc(N4CCOCC4)cc3)c2cn1 [I-030] | 14 | <24 | 60 | 58
29 | CC(=O)N1CCN(c2ccc(Oc3ccnc4ccncc34)cc2)CC1 [I-031] | 4.7 | 28 | 29 | 42
30 | CN(C)C(=O)C1CN(c2ccc(Oc3ccnc4c(F)cncc34)cc2)C1 [I-032] | 2.1 | 27 | <24 | <24
31 | CC(=O)NC1CN(c2ccc(Oc3ccnc4c(F)cncc34)cc2)C1 [I-033] | 3.9 | – | – | –
32 | COc1cc(Oc2ccc(N3CCN(C(C)=O)CC3)cc2)c2cnccc2n1 [I-034] | 14 | – | – | –
33 | CN1CCC(COc2ccc(Oc3ccnc4c(F)cncc34)cc2)C1=O (centres unmarked) [I-035] | 3.7 | <24 | 35 | <24
34 | CN(C)C(=O)CCOc1ccc(Oc2ccnc3c(F)cncc23)cc1 [I-036] | 4.8 | <24 | 32 | <24
35 | O=C1CCCN1CCOc1ccc(Oc2ccnc3c(F)cncc23)cc1 [I-037] | 27 | <24 | 47 | <24
36 | CC(=O)N(C)CCOc1ccc(Oc2ccnc3c(F)cncc23)cc1 [I-038] | 6.6 | – | – | –
37 | CN(C)C(=O)Cn1cc(-c2ccc(Oc3ccnc4c(F)cncc34)cc2)cn1 [I-039, 2-{4-[4-(8-fluoro-[1,6]naphthyridin-4-yloxy)-phenyl]-pyrazol-1-yl}-N,N-dimethyl-acetamide] | 2.5 | <24 | <24 | 26
38 | CN(C)C(=O)Cn1cc(-c2ccc(Oc3ccnc4ccncc34)cc2)cn1 [I-040] | 2.6 | 27 | 32 | 45
39 | Cc1cncc2c(Oc3ccc(-c4cnn(CC(=O)N(C)C)c4)cc3)ccnc12 [I-041] | 5 | – | – | –
40 | CN(C)C(=O)Cn1cc(-c2ccc(Oc3ccnc4c(Cl)cncc34)cc2)cn1 [I-043] | 2.7 | <24 | 42 | 25
